Reference: PMC8148064 (Acta Pharmaceutica Sinica. B, 2020)

Target: adenylyl cyclase-associated protein 1 (CAP1) (Homo sapiens, UniProt Q01518)
Test: ITC with purified CAP1
Format: binding

Chain of adenylyl cyclase-associated protein 1 (CAP1) (Q01518 2-475): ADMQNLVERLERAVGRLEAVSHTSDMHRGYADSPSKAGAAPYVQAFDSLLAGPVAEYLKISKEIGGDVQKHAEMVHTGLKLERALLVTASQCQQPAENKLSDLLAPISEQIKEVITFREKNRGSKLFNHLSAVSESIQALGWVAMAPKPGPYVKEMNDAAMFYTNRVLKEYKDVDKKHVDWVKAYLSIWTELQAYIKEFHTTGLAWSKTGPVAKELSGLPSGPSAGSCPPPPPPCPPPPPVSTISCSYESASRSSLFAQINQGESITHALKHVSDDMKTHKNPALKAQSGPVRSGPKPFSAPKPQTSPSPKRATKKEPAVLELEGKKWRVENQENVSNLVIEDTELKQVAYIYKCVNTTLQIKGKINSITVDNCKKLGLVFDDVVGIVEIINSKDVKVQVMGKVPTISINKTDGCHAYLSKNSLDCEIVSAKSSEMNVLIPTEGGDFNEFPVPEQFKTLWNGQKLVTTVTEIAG

Compound: CC1=C(O)C(=O)C=C2C1=CC=C1[C@@]2(C)CC[C@@]2(C)[C@@H]3C[C@](C)(C(=O)O)CC[C@]3(C)CC[C@]12C [celastrol]
- Kd: 110 nM
